System: RNAi-treated eri-1 (mg366) nematodes
Test: RNAi screening of olfactory receptor genes: chemotaxis assay of RNAi-treated nematodes to odorants
Type: in vivo, Caenorhabditis elegans
Details: repellent or high concentration of attractant
Method in brief: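 Chemotaxis of adult RNAi-fed eri-1 (mg366) nematodes (30–50 per test) was measured toward low (1 μl, 10^−3 or 10^−4 dilution) or high (1 and 5 μl neat) odorant doses. Knockdown: 4 days feeding on E. coli from Ahringer library with IPTG and ampicillin. Differences called by z score at ±1.96, weaker cutoff ±0.96.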

- chemotaxis index (Control nematodes): −0.91 ± 0.009
- chemotaxis index (srh-4 RNAi-treated nematodes): −0.87
- chemotaxis index (srh-7 RNAi-treated nematodes): −0.78
- chemotaxis index (srh-8 RNAi-treated nematodes): −0.86
- chemotaxis index (srh-10 RNAi-treated nematodes): −0.88
- chemotaxis index (srh-11 RNAi-treated nematodes): −0.65
- chemotaxis index (srh-15 RNAi-treated nematodes): −0.25
- chemotaxis index (srh-16 RNAi-treated nematodes): −0.63
- chemotaxis index (srh-18 RNAi-treated nematodes): −0.26
- chemotaxis index (srh-19 RNAi-treated nematodes): −0.80
- chemotaxis index (srh-22 RNAi-treated nematodes): −0.89
- chemotaxis index (srh-23 RNAi-treated nematodes): −0.77
- chemotaxis index (srh-24 RNAi-treated nematodes): −0.79
- chemotaxis index (srh-25 RNAi-treated nematodes): −0.06
- chemotaxis index (srh-27 RNAi-treated nematodes): −0.79
- chemotaxis index (srh-28 RNAi-treated nematodes): −0.71
- chemotaxis index (srh-36 RNAi-treated nematodes): −0.57
- chemotaxis index (srh-37 RNAi-treated nematodes): −0.89
- chemotaxis index (srh-39 RNAi-treated nematodes): −0.90
- chemotaxis index (srh-40 RNAi-treated nematodes): −0.83
- chemotaxis index (srh-41 RNAi-treated nematodes): −0.62
- chemotaxis index (srh-44 RNAi-treated nematodes): −0.58
- chemotaxis index (srh-45 RNAi-treated nematodes): −0.91
- chemotaxis index (srh-46 RNAi-treated nematodes): −0.87
- chemotaxis index (srh-48 RNAi-treated nematodes): −0.79
- chemotaxis index (srh-49 RNAi-treated nematodes): −0.91
- chemotaxis index (srh-50 RNAi-treated nematodes): −0.96
- chemotaxis index (srh-51 RNAi-treated nematodes): −0.90
- chemotaxis index (srh-52 RNAi-treated nematodes): −0.85
- chemotaxis index (srh-55 RNAi-treated nematodes): −0.96
- chemotaxis index (srh-59 RNAi-treated nematodes): −0.79
- chemotaxis index (srh-60 RNAi-treated nematodes): −0.83
- chemotaxis index (srh-61 RNAi-treated nematodes): −0.68
- chemotaxis index (srh-67 RNAi-treated nematodes): −0.61
- chemotaxis index (srh-68 RNAi-treated nematodes): −0.65
- chemotaxis index (srh-69 RNAi-treated nematodes): −0.84
- chemotaxis index (srh-70 RNAi-treated nematodes): −0.81
- chemotaxis index (srh-71 RNAi-treated nematodes): −0.80
- chemotaxis index (srh-72 RNAi-treated nematodes): −0.87
- chemotaxis index (srh-74 RNAi-treated nematodes): −0.96
- chemotaxis index (srh-75 RNAi-treated nematodes): −0.86
- chemotaxis index (srh-77 RNAi-treated nematodes): −0.74
- chemotaxis index (srh-79 RNAi-treated nematodes): −0.61
- chemotaxis index (srh-80 RNAi-treated nematodes): −0.81
- chemotaxis index (srh-82 RNAi-treated nematodes): −0.96
- chemotaxis index (srh-83 RNAi-treated nematodes): −0.70
- chemotaxis index (srh-97 RNAi-treated nematodes): −0.66
- chemotaxis index (srh-99 RNAi-treated nematodes): −0.82
- chemotaxis index (srh-100 RNAi-treated nematodes): −0.48
- chemotaxis index (srh-104 RNAi-treated nematodes): −0.71
- chemotaxis index (srh-105 RNAi-treated nematodes): −0.80
- chemotaxis index (srh-109 RNAi-treated nematodes): −0.84
- chemotaxis index (srh-111 RNAi-treated nematodes): −0.71
- chemotaxis index (srh-113 RNAi-treated nematodes): −0.91
- chemotaxis index (srh-115 RNAi-treated nematodes): −0.75
- chemotaxis index (srh-116 RNAi-treated nematodes): −0.69
- chemotaxis index (srh-118 RNAi-treated nematodes): −0.89
- chemotaxis index (srh-119 RNAi-treated nematodes): −0.84
- chemotaxis index (srh-120 RNAi-treated nematodes): −0.68
- chemotaxis index (srh-122 RNAi-treated nematodes): −0.84
- chemotaxis index (srh-123 RNAi-treated nematodes): −0.90
- chemotaxis index (srh-125 RNAi-treated nematodes): −0.77
- chemotaxis index (srh-128 RNAi-treated nematodes): −0.89
- chemotaxis index (srh-129 RNAi-treated nematodes): −0.90
- chemotaxis index (srh-130 RNAi-treated nematodes): −0.94
- chemotaxis index (srh-131 RNAi-treated nematodes): −0.45
- chemotaxis index (srh-132 RNAi-treated nematodes): −0.84
- chemotaxis index (srh-139 RNAi-treated nematodes): −0.91
- chemotaxis index (srh-140 RNAi-treated nematodes): −0.80
- chemotaxis index (srh-141 RNAi-treated nematodes): −0.94
- chemotaxis index (srh-142 RNAi-treated nematodes): −0.94
- chemotaxis index (srh-145 RNAi-treated nematodes): −0.44
- chemotaxis index (srh-148 RNAi-treated nematodes): −0.78
- chemotaxis index (srh-154 RNAi-treated nematodes): −0.58
- chemotaxis index (srh-159 RNAi-treated nematodes): −0.48
- chemotaxis index (srh-165 RNAi-treated nematodes): −0.40
- chemotaxis index (srh-166 RNAi-treated nematodes): −1.00
- chemotaxis index (srh-167 RNAi-treated nematodes): −1.00
- chemotaxis index (srh-169 RNAi-treated nematodes): −0.92
- chemotaxis index (srh-174 RNAi-treated nematodes): −0.92
- chemotaxis index (srh-179 RNAi-treated nematodes): −0.97
- chemotaxis index (srh-182 RNAi-treated nematodes): −0.98
- chemotaxis index (srh-186 RNAi-treated nematodes): −0.93
- chemotaxis index (srh-190 RNAi-treated nematodes): −1.00
- chemotaxis index (srh-193 RNAi-treated nematodes): −0.84
- chemotaxis index (srh-195 RNAi-treated nematodes): −0.98
- chemotaxis index (srh-201 RNAi-treated nematodes): −0.97
- chemotaxis index (srh-203 RNAi-treated nematodes): −1.00
- chemotaxis index (srh-204 RNAi-treated nematodes): −1.00
- chemotaxis index (srh-206 RNAi-treated nematodes): −1.00
- chemotaxis index (srh-207 RNAi-treated nematodes): −1.00
- chemotaxis index (srh-208 RNAi-treated nematodes): −0.82
- chemotaxis index (srh-209 RNAi-treated nematodes): −0.84
- chemotaxis index (srh-210 RNAi-treated nematodes): −0.66
- chemotaxis index (srh-214 RNAi-treated nematodes): −0.96
- chemotaxis index (srh-216 RNAi-treated nematodes): −0.83
- chemotaxis index (srh-217 RNAi-treated nematodes): −0.44
- chemotaxis index (srh-220 RNAi-treated nematodes): −0.28
- chemotaxis index (srh-222 RNAi-treated nematodes): −0.82
- chemotaxis index (srh-223 RNAi-treated nematodes): −0.74
SMILES: CCCCCCCC(C)=O [nonanone]

Source: patent US12493040B2, “Cancer detection method using sense of smell of nematode” (HIROTSU BIO SCIENCE INC., priority 2013, dated 2025)
